EP1564305A2, “Means for detecting and treating cancer cells resistant to therapeutic agents” (priority 2004, dated 2005)
“Also recorded” adds a separate entry of the source.

Legend:
[1] = Toxicity in treated xenograft-bearing mice (weight loss, clinical observation); format: in vivo, nude mice; conditions: gefitinib 40 or 120 mg/kg per os 5 days a week; PEITC 20 to 90 mg/kg per os every 2 days
Description: (§1) Briefly, tumor xenografts were maintained by successive s.c. transplantation of tumor fragments in 8-week old nude mice. Tumor growth curves were obtained by plotting the mean relative tumor volume (i.e. the volume at a given time divided by the volume at the start of the experiment) from groups of at least 5 mice against time. Gefitinib was administered per os at 40 or 120 mg/kg 5 days a week for 3 to 5 weeks, while PEITC dissolved in corn oil was administered per os at 20 to 90 mg/kg every 2 days.

[2] = test system: PC3 human HNSCC cell line; test: cells; format: cell-based; conditions: MTT, 72h incubation, drug used alone
Description: (§2) The 3-(4,5-dimethylthiazol-2-yl)-2,5-diphenyltetrazolium bromide (MTT) cell proliferation assay was used to determine the growth inhibitory effect of gefitinib on the Hep2, CAL33 and […] human HNSCC cell lines. […] Each measurement was done in quadruplicate and the data were expressed as % proliferation of control cells incubated in the absence of drug.

[3] = test system: CAL33 human HNSCC cell line; test: cells; format: cell-based; conditions: CAL-33, MTT, 72h incubation, drug used alone
Description: as §2

[4] = test system: Hep2 human HNSCC cell line; test: cells; format: cell-based
Description: as §2

[5] = test system: human HEP-2 HNSCC xenograft; parameters: species or system nude mice; conditions: mouse, in vivo
Description: (§3) The effect of gefitinib and PEITC alone or in combination on the growth of human tumor xenografts in nude mice was tested according to previously published procedures.
as §1

[6] = test system: human SC131 NSCLC xenograft; format: in vivo, nude mice
Description: as §3, §1

advanced NSCLC = conditions: 142 patients with refractory disease; cited from earlier work
NSCLC = conditions: gefitinib added to chemotherapy; over 2000 previously untreated NSCLC patients; cited from earlier work
[7] = test system: human TEP NSCLC xenograft; test: Tumor xenograft growth in nude mice; format: in vivo; conditions: gefitinib 120 mg/kg per os, 5 days a week for 3 to 5 weeks
Description: as §3, §1

[8] = test system: human IC14 NSCLC xenograft; test: Tumor xenograft growth in nude mice; format: in vivo; conditions: gefitinib 120 mg/kg per os, 5 days a week for 3 to 5 weeks
Description: as §3, §1

[9] = test system: human IC9 NSCLC xenograft; test: Tumor xenograft growth in nude mice; format: in vivo; conditions: gefitinib 120 mg/kg per os, 5 days a week for 3 to 5 weeks
Description: as §3, §1

Row | SMILES | toxicity, judged by absence of weight loss and clinical observation [1] | IC50 [2] [µM] | IC50 [3] [µM] | IC50 ([4]; Homo sapiens, HEP-2, MTT, 72h incubation, drug used alone) [µM] | inhibition of tumor growth [5] | inhibition of tumor growth ([6]; mouse, in vivo) | increase in the IC50 for gefitinib, compared with CAL33 and PC3 ([4]; Hep2 versus CAL33 and PC3) [fold] | tumor growth response ([6]; gefitinib 120 mg/kg per os, 5 days a week for 3 to 5 weeks) | response rate (advanced NSCLC) [%] | benefit in survival, tumor response, or time to progression (NSCLC) | tumor growth response [7] | tumor growth response [8] | tumor growth response [9]
1 | S=C=NCCc1ccccc1 [PEITC, Phenylethyl isothiocyanate] | No toxicity was observed | 490 | 180 | 350 | neither gefitinib or PEITC had any antitumor effect | neither gefitinib or PEITC had any antitumor effect | – | – | – | – | – | – | –
2 | COc1cc2ncnc(Nc3ccc(F)c(Cl)c3)c2cc1OCCCN1CCOCC1 [gefitinib, Gefitinib] | No toxicity was observed | – | – | – | – | – | 4 | refractory; also recorded: did not respond | 10 | no benefit | responded | responded | sensitive; also recorded: responded
